The values below come from patent US9611262B2, “Substituted 2-azabicycles and their use as orexin receptor modulators” (JANSSEN PHARMACEUTICA NV, priority 2014, dated 2017).

The target of one experiment is human orexin 2 receptor (Homo sapiens (Human), UniProt O43614). The experiment can be described thus: Human orexin 2 receptor radioligand binding ([3H]-EMPA competition). As to conditions: HEK293 stably expressing human orexin 2 receptor; 2 nM [3H]-EMPA; averages of 2-20 runs; read-out: hOX2 Ki. Summed up:
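Membranes-free whole HEK293 cells stably expressing human OX2 receptor incubated with [3H]-EMPA and compound (7 concentrations, 0.1 nM–10 μM, ≤0.1% DMSO) for 60 min at room temperature; nonspecific binding with 10 μM almorexant. Filtration and scintillation counting; one-site IC50 converted to Ki using predetermined Kd, triplicates averaged over 2-20 runs.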

For the next experiment, the target named is rat orexin 1 receptor (Rattus norvegicus, UniProt P56718). The experiment is described as follows: Rat orexin 1 receptor radioligand binding (competitive). As to conditions: HEK293 cells stably expressing rat orexin 1 receptor; 4 nM radioligand; averages of 2-20 runs; read-out: rOX1 Ki. How it is done:
The in vitro affinity of the compounds of the invention for the rat/human orexin 1 and human orexin 2 receptors was determined by competitive radioligand binding using [^3H](1-(5-(2-fluoro-phenyl)-2-methyl-thiazol-4-yl)-1-((S)-2-(5-phenyl-(1,3,4)oxadiazol-2-ylmethyl)-pyrrolidin-1-yl)-methanone) (Langmead et al., 2004) and [^3H]EMPA (n-ethyl-2[96-methoxy-pyridin-3-yl)-(toluene-2-sulfonyl)-amino]-N-pyridin-3-ylmethyl acetamide), respectively (Langmead et al., 2004, British Journal of Pharmacology 141:340-346; Malherbe et al., 2004, British Journal of Pharmacology 156:1326-41).
Data are analyzed using pc-Sandy macro and graphed on Graphpad Prism 5. For analysis, each concentration point is averaged from triplicate values and the averaged values are plotted on Graphpad Prism. The IC50 was determined by applying the following equation (GraphPad Prism 5.0, San Diego) for one site competition where X=log (concentration) and Y=specific binding. Top denotes the total [^3H]— (1-(5-(2-fluoro-phenyl)-2-methyl-thiazol-4-yl)-1-((S)-2-(5-phenyl-(1,3,4)oxadiazol-2-ylmethyl)-pyrrolidin-1-yl)-methanone) binding, bottom denotes the nonspecific [^3H]— (1-(5-(2-fluoro-phenyl)-2-methyl-thiazol-4-yl)-1-((S)-2-(5-phenyl-(1,3,4)oxadiazol-2-ylmethyl)-pyrrolidin-1-yl)-methanone) binding. Graphpad Prism calculates Ki value from IC50 and the pre-determined Kd values for [^3H]— (1-(5-(2-fluoro-phenyl)-2-methyl-thiazol-4-yl)-1-((S)-2-(5-phenyl-(1,3,4)oxadiazol-2-ylmethyl)-pyrrolidin-1-yl)-methanone) and [^3H]-EMPA. The Ki for each compound is then uploaded into 3DX. Each run comprises individual compounds in triplicate. The data in Table 1 and Table 2 represent averages from between 2-20 runs
Rat and Human Orexin 1 Receptor Radioligand Binding Studies
Human Embryonic Kidney 293 cells (HEK293) stably expressing rat orexin 1 receptor (Genebank accession number NM_001525) or Chinese ovary cells (CHO) stably expressing human orexin 1 receptor (Genebank accession number […]) were grown to confluency in DMEM (Hyclone, cat # SH30022), 10% FBS, 1× Pen/Strep, 1× sodium pyruvate, 10 mM HEPES, 600 μg/mL G418 and DMEM/F12 (Gibco, Cat #11039), 10% FBS, 1× Pen/Strep, 600 μg/mL G418 media, respectively on 150 cm^2 tissue culture plates, washed with 5 mM EDTA in PBS (HyClone Dulbecco's Phosphate Buffered Saline 1× with Calcium and Magnesium, Cat # SH30264.01, hereafter referred to simply as PBS) and scraped into 50 ml tubes. After centrifugation (2K×G, 5 min at 4° C.), the supernatant was aspirated and the pellets frozen and stored at −80° C. Cells were resuspended in PBS in the presence of 1 tablet of protease inhibitor cocktail (Roche, Cat. #11836145001) per 50 mL. […] Competition binding experiments in 96 well polypropylene plates were performed using [^3H]— (1-(5-(2-fluoro-phenyl)-2-methyl-thiazol-4-yl)-1-((S)-2-(5-phenyl-(1,3,4)oxadiazol-2-ylmethyl)-pyrrolidin-1-yl)-methanone) (Moraveck Corporation, specific activity=35.3 Ci/mmol), diluted to a 10 nM concentration in PBS (4 nM final). Compounds were solubilized in 100% DMSO (Acros Organics, Cat. #61042-1000) and tested over a range of 7 concentrations (from 0.1 nM to 10 μM). The final concentration of DMSO in the reactions is equal to or less than 0.1%. Total and nonspecific binding was determined in the absence and presence of 10 μM almorexant. The total volume of each reaction is 200 μL (20 μL of diluted compounds, 80 μL of [^3H]— (1-(5-(2-fluoro-phenyl)-2-methyl-thiazol-4-yl)-1-((S)-2-(5-phenyl-(1,3,4)oxadiazol-2-ylmethyl)-pyrrolidin-1-yl)-methanone) diluted in PBS and 100 μL of the cell suspension). Reactions were run for 60 min at room temperature and terminated by filtration through GF/C filter plates (PerkinElmer, Cat. #6005174) presoaked in 0.3% polyethylenimine using the cell harvester (PerkinElmer Filtermate). The plates were washed 3 times by aspirating 30 ml PBS through the plates. Plates were dried in 55° C. oven for 60 min, scintillation fluid was added, and the radioactivity was counted on a Topcount (Packard). […]

Molecules are shown by their SMILES.

human orexin 2 receptor, sequence (O43614 whole entry): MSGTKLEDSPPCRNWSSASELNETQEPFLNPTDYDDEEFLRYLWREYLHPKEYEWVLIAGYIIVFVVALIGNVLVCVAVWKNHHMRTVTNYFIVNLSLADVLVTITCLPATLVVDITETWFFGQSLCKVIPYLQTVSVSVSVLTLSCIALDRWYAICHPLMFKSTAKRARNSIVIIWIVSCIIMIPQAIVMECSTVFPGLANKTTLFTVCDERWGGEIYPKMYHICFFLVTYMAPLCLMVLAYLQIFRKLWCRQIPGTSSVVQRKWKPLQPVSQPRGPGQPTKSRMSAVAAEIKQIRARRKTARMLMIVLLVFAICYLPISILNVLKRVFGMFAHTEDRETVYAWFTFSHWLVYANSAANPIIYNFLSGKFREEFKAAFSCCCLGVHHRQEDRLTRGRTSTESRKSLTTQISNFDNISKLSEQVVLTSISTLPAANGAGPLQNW

What is called Ki is the dissociation constant of the complex between target and ligand, obtained from inhibition or displacement. `C[C@@H]1[C@H]2C[C@@H](Oc3ccc(C(F)(F)F)nc3)[C@H](C2)N1C(=O)c1ncccc1-n1nccn1` (relative stereo) [Example 37, (3-(2H-1,2,3-triazol-2-yl)pyridin-2-yl)((1S*,3R*,4R*,6R*)-3-methyl-6-((6-(trifluoromethyl)pyridin-3-yl)oxy)-2-azabicyclo[2.2.1]heptan-2-yl)methanone]: the Ki is over 10000 nM at human orexin 2 receptor and 3720 nM on rat orexin 1 receptor.

Take `Cc1ccc(-n2nccn2)c(C(=O)N2[C@H](C)[C@H]3C[C@@H](Oc4ccc(C(F)(F)F)nc4)[C@@H]2C3)n1` (relative stereo) [Example 40, (6-methyl-3-(2H-1,2,3-triazol-2-yl)pyridin-2-yl)((1S*,3R*,4R*,6R*)-3-methyl-6-((6-(trifluoromethyl)pyridin-3-yl)oxy)-2-azabicyclo[2.2.1]heptan-2-yl)methanone]: the Ki on human orexin 2 receptor was over 10000 nM; on rat orexin 1 receptor, 544 nM.

On to `C[C@@H]1[C@H]2C[C@@H](Oc3ccc(C(F)(F)F)nc3)[C@H](C2)N1C(=O)c1ccccc1-n1nccn1` (relative stereo) [Example 41, (2-(2H-1,2,3-triazol-2-yl)phenyl)((1S*,3R*,4R*,6R*)-3-methyl-6-((6-(trifluoromethyl)pyridin-3-yl)oxy)-2-azabicyclo[2.2.1]heptan-2-yl)methanone], for which the inhibition constant (Ki) on human orexin 2 receptor was over 10000 nM; at rat orexin 1 receptor, 300 nM.

`CC1C2CC(Oc3ccc(C(F)(F)F)cn3)C(C2)N1C(=O)c1ccccc1-c1ncc(F)cn1` (single isomer, unassigned) [Example 19A, (2-(5-fluoropyrimidin-2-yl)phenyl)((1R*,3S*,4S*,6S*)-3-methyl-6-((5-(trifluoromethyl)pyridin-2-yl)oxy)-2-azabicyclo[2.2.1]heptan-2-yl)methanone]: at rat orexin 1 receptor, the inhibitory constant (Ki) is 746 nM.

As for `C[C@@H]1[C@H]2C[C@@H](Oc3ccc(C(F)(F)F)cn3)[C@H](C2)N1C(=O)c1cccc(-c2ccc(F)cc2)c1` [Example 36, (4′-fluoro-[1,1′-biphenyl]-3-yl)((1S,3R,4R,6R)-3-methyl-6-((5-(trifluoromethyl)pyridin-2-yl)oxy)-2-azabicyclo[2.2.1]heptan-2-yl)methanone], the values for the inhibitory constant (Ki) at human orexin 2 receptor and on rat orexin 1 receptor were over 10000 nM and 845 nM, respectively.

On to `[2H]C([2H])([2H])[C@]1([2H])[C@H]2C[C@@H](Oc3ccc(C(F)(F)F)cn3)[C@H](C2)N1C(=O)c1cccc(F)c1-n1nccn1` [Example 164, [(1R,2R,4S,5R)-2-deuterio-2-(trideuteriomethyl)-5-[[5-(trifluoromethyl)-2-pyridyl]oxy]-3-azabicyclo[2.2.1]heptan-3-yl]-[3-fluoro-2-(triazol-2-yl)phenyl]methanone], for which the Ki was found to be 565 nM at human orexin 2 receptor and 5 nM at rat orexin 1 receptor.

Regarding `C[C@@H]1[C@H]2C[C@@H](Oc3ccc(C(F)(F)F)cn3)[C@H](C2)N1C(=O)c1ccccc1-c1ncc(OCCF)cn1` [Example 169, [2-[5-(2-fluoroethoxy)pyrimidin-2-yl]phenyl]-[(1R,2R,4S,5R)-2-methyl-5-[[5-(trifluoromethyl)-2-pyridyl]oxy]-3-azabicyclo[2.2.1]heptan-3-yl]methanone], the inhibition constant (Ki) was found to be 3940 nM on human orexin 2 receptor and 52 nM at rat orexin 1 receptor.

In the case of `C[C@@H]1[C@H]2C[C@@H](Oc3ccc(C(F)(F)F)cn3)[C@H](C2)N1C(=O)c1ccccc1-c1cnc(F)cn1` [Example 170, [2-(5-fluoropyrazin-2-yl)phenyl]-[(1R,2R,4S,5R)-2-methyl-5-[[5-(trifluoromethyl)-2-pyridyl]oxy]-3-azabicyclo[2.2.1]heptan-3-yl]methanone], the Ki on human orexin 2 receptor worked out at 1600 nM; at rat orexin 1 receptor, 9 nM.

Consider `O=C(c1c(F)cccc1-n1nccn1)N1[C@H](CO)[C@@H]2CC[C@H]1[C@H](Oc1ccc(C(F)(F)F)cn1)C2` [Example 177, [2-fluoro-6-(triazol-2-yl)phenyl]-[(1R,2S,4S,5R)-2-(hydroxymethyl)-5-[[5-(trifluoromethyl)-2-pyridyl]oxy]-3-azabicyclo[2.2.2]octan-3-yl]methanone], for which the inhibitory constant (Ki) at human orexin 2 receptor is over 10000 nM; at rat orexin 1 receptor it was 1150 nM.

`O=C(c1cc(F)ccc1-c1ncc(F)cn1)N1[C@H](CO)[C@@H]2CC[C@H]1[C@H](Oc1ccc(C(F)(F)F)cn1)C2` [Example 178, [5-fluoro-2-(5-fluoropyrimidin-2-yl)phenyl]-[(1R,2S,4S,5R)-2-(hydroxymethyl)-5-[[5-(trifluoromethyl)-2-pyridyl]oxy]-3-azabicyclo[2.2.2]octan-3-yl]methanone]: the inhibition constant Ki on human orexin 2 receptor was over 10000 nM; at rat orexin 1 receptor it was 1100 nM.

Consider `COC[C@@H]1[C@@H]2CC[C@@H]([C@H](Oc3ccc(C(F)(F)F)cn3)C2)N1C(=O)c1nc(C)ccc1-n1nccn1` [Example 179, [(1R,2S,4S,5R)-2-(methoxymethyl)-5-[[5-(trifluoromethyl)-2-pyridyl]oxy]-3-azabicyclo[2.2.2]octan-3-yl]-[6-methyl-3-(triazol-2-yl)-2-pyridyl]methanone], for which the Ki on human orexin 2 receptor was found to be 2100 nM; at rat orexin 1 receptor it was 15 nM.

As for `COC[C@@H]1[C@@H]2CC[C@@H]([C@H](Oc3ccc(C(F)(F)F)cn3)C2)N1C(=O)c1nc(C)ccc1-c1ncccn1` [Example 180, [(1R,2S,4S,5R)-2-(methoxymethyl)-5-[[5-(trifluoromethyl)-2-pyridyl]oxy]-3-azabicyclo[2.2.2]octan-3-yl]-(6-methyl-3-pyrimidin-2-yl-2-pyridyl)methanone], the Ki at human orexin 2 receptor amounted to 1700 nM; on rat orexin 1 receptor it was 32 nM.

Take `COC[C@@H]1[C@@H]2CC[C@@H]([C@H](Oc3ccc(C(F)(F)F)cn3)C2)N1C(=O)c1ccccc1-c1ncccn1` [Example 181, [(1R,2S,4S,5R)-2-(methoxymethyl)-5-[[5-(trifluoromethyl)-2-pyridyl]oxy]-3-azabicyclo[2.2.2]octan-3-yl]-(2-pyrimidin-2-ylphenyl)methanone]: the inhibitory constant (Ki) on human orexin 2 receptor was over 10000 nM; at rat orexin 1 receptor it was 87 nM.

Regarding `Cc1ccc(-c2ncccn2)c(C(=O)N2[C@H](C)[C@H]3C[C@@H](Oc4ccc(C(F)F)cn4)[C@@H]2C3)n1` [Example 182, [(1R,2R,4S,5R)-5-[[5-(difluoromethyl)-2-pyridyl]oxy]-2-methyl-3-azabicyclo[2.2.1]heptan-3-yl]-(6-methyl-3-pyrimidin-2-yl-2-pyridyl)methanone], the results for the Ki on human orexin 2 receptor and at rat orexin 1 receptor were 95 nM and 11 nM, respectively.

With `CCOC(=O)[C@@H]1[C@H]2C[C@@H](Oc3ccc(C(F)(F)F)cn3)[C@H](C2)N1C(=O)c1nc(C)ccc1-n1nccn1` [Example 192, ethyl (1R,2S,4S,5R)-3-[6-methyl-3-(triazol-2-yl)pyridine-2-carbonyl]-5-[[5-(trifluoromethyl)-2-pyridyl]oxy]-3-azabicyclo[2.2.1]heptane-2-carboxylate], the inhibitory constant (Ki) on human orexin 2 receptor is 795 nM; on rat orexin 1 receptor it was 53 nM.
